According to ChEMBL document CHEMBL1140480, “Amino(methyl) pyrrolidines as novel scaffolds for factor Xa inhibitors” (Bioorg Med Chem Lett, 2007):
Values joined by “and” are separate entries in the source; they are usually repeats but may differ in a detail not shown here. Equal entries are not always repeated.

What was measured:
Coagulation factor X = Coagulation factor X (Homo sapiens, UniProt P00742); experiment: Inhibition of F10a
[1] = molecular target: Coagulation factor IX (Homo sapiens) (UniProt P00740); experiment: Inhibition of F9a
[2] = Permeability from apical to basolateral side of the Caco-2 cell membrane at pH 6.5; format: ADME, cell-based; conditions: human, Caco-2, pH 6.5; read-out: permeability
Cytochrome P450 2C19 = Cytochrome P450 2C19 (Homo sapiens, UniProt P33261); experiment: Inhibition of CYP2C19; format: ADME
Cytochrome P450 3A4 = Cytochrome P450 3A4 (Homo sapiens, UniProt P08684); experiment: Inhibition of CYP3A4; format: ADME
Cytochrome P450 2D6 = Cytochrome P450 2D6 (Homo sapiens, UniProt P10635); experiment: Inhibition of CYP2D6; format: ADME
Cytochrome P450 2C9 = Cytochrome P450 2C9 (Homo sapiens, UniProt P11712); experiment: Inhibition of CYP2C9; format: ADME
Plasma = experiment: Anticoagulant activity in human plasma assessed as concentration required to double prothrombin time; format: functional
Cytochrome P450 1A2 = molecular target: T1, Cytochrome P450 1A2 (Homo sapiens, UniProt P05177); experiment: Inhibition of CYP1A2; format: ADME
T1 sequence (P05177 whole entry): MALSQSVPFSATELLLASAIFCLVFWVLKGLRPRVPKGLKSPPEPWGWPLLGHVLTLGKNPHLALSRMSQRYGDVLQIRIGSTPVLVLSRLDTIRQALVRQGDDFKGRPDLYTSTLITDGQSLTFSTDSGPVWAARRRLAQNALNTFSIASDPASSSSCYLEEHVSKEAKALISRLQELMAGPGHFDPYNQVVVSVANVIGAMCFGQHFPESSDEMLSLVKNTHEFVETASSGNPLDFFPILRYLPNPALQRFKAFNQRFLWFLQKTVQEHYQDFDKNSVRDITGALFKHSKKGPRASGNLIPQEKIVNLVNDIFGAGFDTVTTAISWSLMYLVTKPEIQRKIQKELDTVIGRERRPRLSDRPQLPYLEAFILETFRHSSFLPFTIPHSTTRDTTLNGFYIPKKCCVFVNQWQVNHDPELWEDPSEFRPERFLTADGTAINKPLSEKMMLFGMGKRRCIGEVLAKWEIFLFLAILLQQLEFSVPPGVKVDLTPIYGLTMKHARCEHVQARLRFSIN

Trypsin (Homo sapiens) = Trypsin (Homo sapiens) (UniProt P07477+P07478+P35030); experiment: Inhibition of trypsin; format: protein assay
[3] = molecular target: Plasma kallikrein (Homo sapiens) (UniProt P03952); experiment: Inhibition of plasma kallikrein; format: cell-free
[4] = molecular target: T2, Coagulation factor VII (Homo sapiens) (UniProt P08709); experiment: Inhibition of F7a
T2 sequence (whole entry): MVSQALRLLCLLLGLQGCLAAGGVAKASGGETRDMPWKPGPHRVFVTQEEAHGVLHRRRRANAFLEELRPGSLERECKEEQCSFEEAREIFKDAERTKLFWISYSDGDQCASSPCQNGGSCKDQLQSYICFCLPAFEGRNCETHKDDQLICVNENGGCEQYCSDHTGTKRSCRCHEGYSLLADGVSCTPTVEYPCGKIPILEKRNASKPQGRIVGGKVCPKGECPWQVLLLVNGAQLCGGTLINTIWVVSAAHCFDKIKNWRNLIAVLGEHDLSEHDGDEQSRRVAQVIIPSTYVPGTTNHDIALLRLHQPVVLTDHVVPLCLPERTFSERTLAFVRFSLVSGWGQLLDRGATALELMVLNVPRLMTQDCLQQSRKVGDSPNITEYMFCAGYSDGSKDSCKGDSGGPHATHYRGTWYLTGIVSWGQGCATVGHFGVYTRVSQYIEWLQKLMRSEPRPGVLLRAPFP

[5] = molecular target: Prothrombin (Homo sapiens) (UniProt P00734); experiment: Inhibition of thrombin

Sequence of Coagulation factor X (P00742 41-179 limits assumed): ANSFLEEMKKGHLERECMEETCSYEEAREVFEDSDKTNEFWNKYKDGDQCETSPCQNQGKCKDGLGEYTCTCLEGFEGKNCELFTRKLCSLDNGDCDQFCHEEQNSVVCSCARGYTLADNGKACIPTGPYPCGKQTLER
Sequence of Coagulation factor X (P00742 235-488 limits assumed): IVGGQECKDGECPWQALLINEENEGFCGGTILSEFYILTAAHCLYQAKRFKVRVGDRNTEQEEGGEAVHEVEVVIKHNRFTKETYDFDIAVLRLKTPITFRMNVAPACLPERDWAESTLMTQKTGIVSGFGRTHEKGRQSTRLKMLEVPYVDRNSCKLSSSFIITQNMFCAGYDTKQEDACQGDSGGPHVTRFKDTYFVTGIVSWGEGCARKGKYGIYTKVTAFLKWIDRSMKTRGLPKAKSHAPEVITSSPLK
Sequence of Cytochrome P450 3A4 (P08684 whole entry): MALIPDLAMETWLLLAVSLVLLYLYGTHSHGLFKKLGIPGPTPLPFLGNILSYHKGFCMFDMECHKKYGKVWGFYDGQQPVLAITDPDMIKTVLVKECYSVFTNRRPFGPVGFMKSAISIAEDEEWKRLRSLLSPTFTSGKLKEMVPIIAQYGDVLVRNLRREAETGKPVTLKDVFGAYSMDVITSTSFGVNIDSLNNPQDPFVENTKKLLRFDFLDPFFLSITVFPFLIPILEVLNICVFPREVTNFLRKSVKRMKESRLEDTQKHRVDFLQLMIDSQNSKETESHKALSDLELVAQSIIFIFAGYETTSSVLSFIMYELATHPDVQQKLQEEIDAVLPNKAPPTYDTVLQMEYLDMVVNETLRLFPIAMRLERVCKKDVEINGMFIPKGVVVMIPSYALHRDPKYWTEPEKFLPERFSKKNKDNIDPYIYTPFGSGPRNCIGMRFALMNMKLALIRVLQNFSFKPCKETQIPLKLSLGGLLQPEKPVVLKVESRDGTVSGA
Sequence of Coagulation factor IX (Homo sapiens) (P00740 47-191 limits assumed): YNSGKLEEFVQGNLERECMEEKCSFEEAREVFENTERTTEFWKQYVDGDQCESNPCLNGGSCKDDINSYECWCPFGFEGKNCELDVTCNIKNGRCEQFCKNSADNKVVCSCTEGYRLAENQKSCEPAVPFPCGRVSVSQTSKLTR
Sequence of Coagulation factor IX (Homo sapiens) (P00740 227-461 limits assumed): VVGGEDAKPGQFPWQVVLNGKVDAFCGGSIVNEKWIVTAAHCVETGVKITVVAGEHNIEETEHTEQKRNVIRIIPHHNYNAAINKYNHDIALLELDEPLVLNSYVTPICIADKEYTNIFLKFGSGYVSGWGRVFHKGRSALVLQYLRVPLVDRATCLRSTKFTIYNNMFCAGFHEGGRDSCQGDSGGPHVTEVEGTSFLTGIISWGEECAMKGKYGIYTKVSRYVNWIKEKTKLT
Sequence of Cytochrome P450 2C9 (P11712 whole entry): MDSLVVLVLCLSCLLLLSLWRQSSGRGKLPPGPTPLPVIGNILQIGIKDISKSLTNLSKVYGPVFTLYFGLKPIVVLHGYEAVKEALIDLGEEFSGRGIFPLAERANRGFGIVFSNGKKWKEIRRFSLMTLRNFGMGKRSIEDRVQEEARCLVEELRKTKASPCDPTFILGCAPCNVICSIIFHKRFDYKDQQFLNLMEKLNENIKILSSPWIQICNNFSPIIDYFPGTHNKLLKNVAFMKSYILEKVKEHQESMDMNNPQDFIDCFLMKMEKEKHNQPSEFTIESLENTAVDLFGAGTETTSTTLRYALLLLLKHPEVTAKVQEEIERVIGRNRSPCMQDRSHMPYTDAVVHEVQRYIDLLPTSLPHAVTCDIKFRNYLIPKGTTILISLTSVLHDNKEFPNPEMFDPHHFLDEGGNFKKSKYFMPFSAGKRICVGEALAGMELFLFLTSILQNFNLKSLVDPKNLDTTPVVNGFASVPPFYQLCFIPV
Sequence of Plasma kallikrein (Homo sapiens) (P03952 20-390 limits assumed): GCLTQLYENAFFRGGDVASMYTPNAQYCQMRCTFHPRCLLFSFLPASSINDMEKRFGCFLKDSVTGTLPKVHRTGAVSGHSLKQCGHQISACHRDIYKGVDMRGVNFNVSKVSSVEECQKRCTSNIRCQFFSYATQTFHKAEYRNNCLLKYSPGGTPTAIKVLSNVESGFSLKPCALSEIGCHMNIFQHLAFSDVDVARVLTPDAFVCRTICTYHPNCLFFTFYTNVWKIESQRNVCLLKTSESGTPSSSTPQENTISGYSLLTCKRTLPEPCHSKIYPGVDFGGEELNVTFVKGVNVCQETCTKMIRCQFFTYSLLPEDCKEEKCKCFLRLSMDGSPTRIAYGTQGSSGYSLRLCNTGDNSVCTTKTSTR
Sequence of Plasma kallikrein (Homo sapiens) (P03952 391-638 limits assumed): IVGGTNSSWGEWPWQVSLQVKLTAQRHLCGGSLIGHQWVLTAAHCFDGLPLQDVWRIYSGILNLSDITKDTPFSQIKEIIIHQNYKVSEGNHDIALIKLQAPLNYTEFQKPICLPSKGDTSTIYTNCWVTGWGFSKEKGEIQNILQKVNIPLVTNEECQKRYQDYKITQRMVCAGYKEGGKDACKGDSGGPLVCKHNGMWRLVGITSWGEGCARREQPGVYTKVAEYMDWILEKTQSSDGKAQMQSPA
Sequence of Cytochrome P450 2C19 (P33261 whole entry): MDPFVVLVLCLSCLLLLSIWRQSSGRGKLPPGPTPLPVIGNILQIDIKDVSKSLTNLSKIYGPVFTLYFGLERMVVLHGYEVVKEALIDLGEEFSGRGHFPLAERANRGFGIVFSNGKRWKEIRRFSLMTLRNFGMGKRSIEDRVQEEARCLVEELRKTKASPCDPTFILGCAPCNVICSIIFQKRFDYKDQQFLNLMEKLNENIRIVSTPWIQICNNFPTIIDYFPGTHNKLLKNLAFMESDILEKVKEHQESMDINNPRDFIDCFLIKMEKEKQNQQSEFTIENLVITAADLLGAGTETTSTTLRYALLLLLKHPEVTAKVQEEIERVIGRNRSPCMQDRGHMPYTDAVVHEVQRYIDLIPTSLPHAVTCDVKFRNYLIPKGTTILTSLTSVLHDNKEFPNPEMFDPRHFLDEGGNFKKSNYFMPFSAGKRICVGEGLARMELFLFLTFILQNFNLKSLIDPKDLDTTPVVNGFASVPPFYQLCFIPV
Sequence of Cytochrome P450 2D6 (P10635 whole entry): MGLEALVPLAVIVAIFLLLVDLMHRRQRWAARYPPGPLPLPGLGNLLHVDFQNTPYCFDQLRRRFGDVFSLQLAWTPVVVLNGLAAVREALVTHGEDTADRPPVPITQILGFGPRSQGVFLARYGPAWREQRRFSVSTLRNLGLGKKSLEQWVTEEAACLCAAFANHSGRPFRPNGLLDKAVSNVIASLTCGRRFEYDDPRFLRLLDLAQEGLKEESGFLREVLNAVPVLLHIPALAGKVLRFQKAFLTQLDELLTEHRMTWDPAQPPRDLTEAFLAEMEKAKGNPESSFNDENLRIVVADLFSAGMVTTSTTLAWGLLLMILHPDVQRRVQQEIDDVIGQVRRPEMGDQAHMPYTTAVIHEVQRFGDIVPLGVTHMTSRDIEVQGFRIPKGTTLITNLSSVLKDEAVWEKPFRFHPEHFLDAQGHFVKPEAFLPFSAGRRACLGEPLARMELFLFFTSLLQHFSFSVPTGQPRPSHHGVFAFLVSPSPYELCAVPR

Row | SMILES | IC50 (Coagulation factor X) [nM] | Activity (Plasma) [µM] | also measured
1 | Cc1nccc(N2CCC(C(=O)N3CC[C@H](CNS(=O)(=O)/C=C/c4ccc(Cl)s4)C3)CC2)n1 | 718 | – | –
2 | O=C(C1CCN(c2ccncc2)CC1)N1CCC(CNS(=O)(=O)c2ccc3ccccc3c2)C1 (racemic) | 1100 | – | –
3 | O=C(C1CCN(c2ccncc2)CC1)N1CC[C@@H](CNS(=O)(=O)c2ccc(-c3ccc(Cl)s3)s2)C1 | 18 | 6.8 | Activity [1]: > 30 µM; Papp A→B [2]: < 1.5 ×10⁻⁶ cm/s; IC50 (Cytochrome P450 2C19): 14100 nM; IC50 (Cytochrome P450 3A4): 2330 nM and 1000 nM; IC50 (Cytochrome P450 2D6): 7970 nM; IC50 (Cytochrome P450 2C9): 1470 nM; IC50 (Cytochrome P450 1A2): > 20000 nM; Activity (Trypsin (Homo sapiens)): > 30 µM; Activity [3]: > 30 µM; Activity [4]: > 30 µM; Activity [5]: > 30 µM
4 | Cc1nccc(N2CCC(C(=O)N3CC[C@@H](CNS(=O)(=O)/C=C/c4ccc(Cl)s4)C3)CC2)n1 | 230 | 28 | –
5 | Cc1nccc(N2CCC(C(=O)N3CC[C@@H](CNS(=O)(=O)c4ccc(-c5ccc(Cl)s5)s4)C3)CC2)n1 | 61 | 50 | –
6 | O=C(C1CCN(c2ccncc2)CC1)N1CCC(CNS(=O)(=O)c2ccc3cc(Cl)ccc3c2)C1 (racemic) | 247 | 40 | –
7 | O=C(N1CCCC1)N1CC[C@H](CNS(=O)(=O)c2ccc(-c3ccc(Cl)s3)s2)C1 | 130 | 130 | –
8 | O=C(C(=O)N1CCC[C@H]1CN1CCCC1)N1CC[C@@H](CNS(=O)(=O)/C=C/c2ccc(Cl)s2)C1 | 436 | – | –
9 | O=C(C(=O)N1CCC[C@H]1CN1CCCC1)N1CC[C@H](CNS(=O)(=O)/C=C/c2ccc(Cl)s2)C1 | 70 | 8 | –
10 | O=C(N1CC[C@H](CNS(=O)(=O)c2ccc(-c3ccc(Cl)s3)s2)C1)N1CCC[C@H]1CN1CCCC1 | 40 | 13 | –
11 | O=C(C1CCN(c2ccncc2)CC1)N1CCC(CNS(=O)(=O)/C=C/c2ccc(Cl)cc2)C1 (racemic) | 493 | 32 | –
12 | NS(=O)(=O)c1ccccc1-c1ccc(C(=O)N2CC[C@@H](CNS(=O)(=O)/C=C/c3ccc(Cl)s3)C2)cc1 | 1900 | – | –
13 | O=C(c1ccc(-n2ccnc2)cc1)N1CC[C@H](CNS(=O)(=O)/C=C/c2ccc(Cl)s2)C1 | 1300 | – | –
14 | O=C(C1CCN(c2ccncc2)CC1)N1CC[C@H](CNS(=O)(=O)/C=C/c2ccc(Cl)s2)C1 | – | 13 | –
15 | O=C(C1CCN(c2ccncc2)CC1)N1CCC(CNS(=O)(=O)/C=C/c2ccc(Br)s2)C1 (racemic) | 86 | 8.7 | –
16 | O=C(C1CCN(c2ccncc2)CC1)N1CC[C@@H](CNS(=O)(=O)/C=C/c2ccc(Cl)s2)C1 | – | 1.7 | –
17 | O=C(C1CCN(c2ccncc2)CC1)N1CCC(CNS(=O)(=O)c2cc3ccc(Cl)cc3s2)C1 (racemic) | 255 | 45 | –
18 | O=C(C1CCN(c2ccncc2)CC1)N1CC[C@@H](CNS(=O)(=O)/C=C/c2ccc(Br)s2)C1 | 22 | 5 | –
19 | O=C(C1CCN(c2ccncc2)CC1)N1CCC(CNS(=O)(=O)/C=C/c2cccc(Cl)c2)C1 (racemic) | 4300 | – | –
